Measured values as given in DBAASP.
Values after ≈ are worked out from the molar mass of the structure shown. Blank lines part the entries; values can stand above or below the molecule they belong to.

Key:
Assay in all cases: ≥ marks a high value that may be exact or a test limit, other limits are often not marked, values filed in µg/mL are converted to µM
[1] = system: Pseudomonas aeruginosa 910
[2] = system: Pseudomonas aeruginosa 253
[3] = system: Pseudomonas aeruginosa 919
[4] = system: Pseudomonas aeruginosa PAO1
[5] = system: Proteus mirabilis ATCC 25933
[6] = system: Klebsiella pneumoniae KK3 9904
[7] = system: Candida albicans ATCC 90028
[8] = system: Pseudomonas aeruginosa ATCC 27853
[9] = system: Escherichia coli ATCC 25922
[10] = system: Enterobacter cloacae NHTCC 53001
[11] = system: Enterococcus faecalis ATCC 29212
[12] = system: Staphylococcus aureus NCTC 8325
[13] = system: Staphylococcus epidermidis RP62A
[14] = system: Staphylococcus aureus ATCC 25923
[15] = system: Bacillus subtilis CCT 2471
[16] = system: Candida albicans
[17] = system: Escherichia coli CCT 1371
[18] = system: Staphylococcus epidermidis
[19] = system: Staphylococcus aureus ATCC 6538
[20] = system: Pseudomonas aeruginosa ATCC 15442
[21] = system: Staphylococcus saprophyticus
[22] = system: Pseudomonas aeruginosa PA14
[23] = system: Acinetobacter baumannii ATCC 7978
[24] = system: Enterococcus faecium E007
[25] = system: Staphylococcus aureus ATCC 29231
[26] = system: Candida albicans ATCC 10231
[27] = system: Staphylococcus aureus NCTC 10788
[28] = system: Klebsiella pneumoniae ATCC 43816
[29] = system: Enterococcus faecalis NCTC 12697
[30] = system: Staphylococcus aureus NCTC 12493
[31] = system: Candida albicans NCTC 1467
[32] = system: Escherichia coli NCTC 10418
[33] = system: Salmonella enterica serovar Typhimurium
[34] = system: Pseudomonas aeruginosa H103
[35] = system: Escherichia coli UB1005

SMILES: CC[C@H](C)[C@H](NC(=O)[C@@H](N)Cc1ccccc1)C(=O)N[C@@H](CCCCN)C(=O)N[C@@H](Cc1c[nH]c2ccccc12)C(=O)N[C@@H](CCCN=C(N)N)C(=O)N[C@@H](Cc1ccccc1)C(=O)N[C@@H](CCCN=C(N)N)C(=O)N[C@@H](CCCN=C(N)N)C(=O)N[C@@H](Cc1c[nH]c2ccccc12)C(=O)N[C@@H](CCCCN)C(=O)N[C@@H](CCCCN)C(=O)N[C@@H](CCCN=C(N)N)C(=O)N[C@H](C(N)=O)[C@@H](C)O [FIKWRFRRWKKRT]
MIC [1]: 8 µM (≈ 15.3 µg/mL)
MIC [2]: 16 µM (≈ 30.5 µg/mL)
MIC [3]: ≥ 32 µM
MIC [4]: 4 µM (≈ 7.63 µg/mL)

SMILES: CC(C)C[C@H](NC(=O)[C@H](C)NC(=O)[C@H](CCCCN)NC(=O)[C@H](C)NC(=O)[C@H](C)NC(=O)CNC(=O)[C@H](CCCCN)NC(=O)[C@H](CC(C)C)NC(=O)[C@H](CC(C)C)NC(=O)[C@H](CC(=O)O)NC(=O)[C@H](CCCCN)NC(=O)[C@H](Cc1ccccc1)NC(=O)CN)C(=O)N[C@H](C(=O)N[C@@H](CCCCN)C(=O)N[C@H](C(=O)N[C@H](C(=O)N[C@@H](CC(C)C)C(=O)N[C@@H](Cc1ccccc1)C(=O)O)C(C)C)[C@@H](C)O)C(C)C [GFKDLLKGAAKALVKTVLF]
MIC [5]: ≥ 100 µM
MIC [6]: 25 µM (≈ 50.5 µg/mL)
MIC [7]: ≥ 100 µM
MIC [8]: 50 µM (≈ 101 µg/mL)
MIC [9]: 6 µM (≈ 12.1 µg/mL)
MIC [10]: 13 µM (≈ 26.3 µg/mL)
MIC [11]: > 100 µM
MIC [12]: ≥ 50 µM
MIC [13]: 25 µM (≈ 50.5 µg/mL)

SMILES: CC[C@H](C)[C@H](NC(=O)CN)C(=O)N[C@@H](CCCCN)C(=O)N[C@@H](CC(=O)O)C(=O)N[C@@H](Cc1c[nH]c2ccccc12)C(=O)N[C@H](C(=O)N[C@@H](CCCCN)C(=O)NCC(=O)N[C@@H](C)C(=O)N[C@@H](C)C(=O)N[C@@H](CCCCN)C(=O)N[C@@H](CCCCN)C(=O)N[C@@H](CC(C)C)C(=O)N[C@H](C(=O)N[C@@H](CCCCN)C(=O)N[C@H](C(=O)N[C@H](C(=O)N[C@@H](C)C(=O)N[C@@H](CO)C(=O)N[C@@H](Cc1cnc[nH]1)C(=O)N[C@H](C(=O)N[C@@H](C)C(=O)N[C@@H](CC(N)=O)C(=O)N[C@@H](CCC(N)=O)C(=O)O)[C@@H](C)CC)C(C)C)[C@@H](C)O)[C@@H](C)CC)[C@@H](C)CC [GIKDWIKGAAKKLIKTVASHIANQ]
MIC [5]: ≥ 100 µM
MIC [6]: 13 µM (≈ 33.7 µg/mL)
MIC [7]: ≥ 100 µM
MIC [8]: 13 µM (≈ 33.7 µg/mL)
MIC [9]: 6 µM (≈ 15.5 µg/mL)
MIC [10]: 6 µM (≈ 15.5 µg/mL)
MIC [11]: > 100 µM
MIC [12]: ≥ 50 µM
MIC [13]: 13 µM (≈ 33.7 µg/mL)

SMILES: CC[C@H](C)[C@H](N)C(=O)N[C@@H](CC(C)C)C(=O)N[C@@H](CCCCN)C(=O)N[C@@H](Cc1c[nH]c2ccccc12)C(=O)N[C@@H](CCCCN)C(=O)N[C@H](C(=O)N[C@@H](CCCCN)C(=O)N[C@@H](Cc1c[nH]c2ccccc12)C(=O)N[C@@H](Cc1c[nH]c2ccccc12)C(=O)N[C@@H](CCCCN)C(=O)N[C@@H](Cc1c[nH]c2ccccc12)C(=O)N[C@@H](Cc1ccccc1)C(=O)N[C@@H](CCCN=C(N)N)C(N)=O)[C@@H](C)O [ILKWKTKWWKWFR]
MIC [1]: 4 µM (≈ 7.62 µg/mL)
MIC [2]: 4 µM (≈ 7.62 µg/mL)
MIC [3]: 16 µM (≈ 30.5 µg/mL)
MIC [4]: 2 µM (≈ 3.81 µg/mL)

SMILES: CC[C@H](C)[C@H](NC(=O)CNC(=O)[C@H](CCCCN)NC(=O)[C@H](C)NC(=O)[C@@H](NC(=O)[C@H](CCCCN)NC(=O)[C@@H](N)CC(C)C)[C@@H](C)CC)C(=O)N[C@H](C(=O)N[C@@H](CCCCN)C(=O)N[C@@H](CO)C(=O)N[C@@H](CC(C)C)C(=O)O)[C@@H](C)CC [LKIAKGIIKSL]
MIC [14]: > 84.5 µM
MIC [15]: ≥ 84.5 µM
MIC [9]: > 84.5 µM
MIC [16]: > 84.5 µM
MIC [17]: ≥ 84.5 µM
MIC [18]: ≥ 84.5 µM
MIC [19]: > 84.5 µM
MIC [20]: ≥ 84.5 µM
MIC [21]: ≥ 84.5 µM

SMILES: CC[C@H](C)[C@H](NC(=O)[C@H](CCCCN)NC(=O)[C@H](CCCCN)NC(=O)[C@@H](N)CC(C)C)C(=O)NCC(=O)N[C@@H](CCCCN)C(=O)N[C@@H](CCCCN)C(=O)N[C@H](C(=O)N[C@@H](Cc1c[nH]c2ccccc12)C(=O)N[C@@H](CCCN=C(N)N)C(=O)N[C@H](C(=O)NCC(=O)O)C(C)C)[C@@H](C)CC [LKKIGKKIWRVG]
MIC [22]: ≥ 89.8 µM
MIC [23]: ≥ 89.8 µM
MIC [24]: ≥ 89.8 µM
MIC [25]: ≥ 89.8 µM

Further lines, results first:

MIC [22]: 26.8 µM (≈ 64 µg/mL)
MIC [24]: ≥ 53.7 µM
MIC [26]: 53.7 µM (≈ 128 µg/mL)
MIC [25]: 13.1 µM (≈ 31.3 µg/mL)
SMILES: CC[C@H](C)[C@H](NC(=O)[C@H](CCCCN)NC(=O)[C@H](CCCCN)NC(=O)[C@H](Cc1c[nH]c2ccccc12)NC(=O)[C@@H](NC(=O)[C@H](CCCCN)NC(=O)[C@H](Cc1c[nH]c2ccccc12)NC(=O)[C@@H](N)CC(C)C)[C@@H](C)CC)C(=O)N[C@@H](Cc1c[nH]c2ccccc12)C(=O)N[C@@H](CCCN=C(N)N)C(=O)N[C@H](C(=O)N[C@@H](Cc1c[nH]c2ccccc12)C(=O)N[C@@H](Cc1c[nH]c2ccccc12)C(=O)N[C@@H](CC(N)=O)C(=O)N[C@@H](Cc1c[nH]c2ccccc12)C(=O)N[C@@H](CCCN=C(N)N)C(=O)O)C(C)C [LWKIWKKIWRVWWNWR]

MIC [27]: 8 µM (≈ 21.8 µg/mL)
MIC [8]: 32 µM (≈ 87.2 µg/mL)
MIC [28]: ≥ 32 µM
MIC [29]: ≥ 32 µM
MIC [30]: 16 µM (≈ 43.6 µg/mL)
MIC [31]: ≥ 64 µM
MIC [32]: 8 µM (≈ 21.8 µg/mL)
SMILES: CSCC[C@H](NC(=O)[C@H](CCC(=O)O)NC(=O)[C@H](CCCCN)NC(=O)[C@H](CC(C)C)NC(=O)[C@H](CCCCN)NC(=O)CNC(=O)[C@H](Cc1c[nH]c2ccccc12)NC(=O)[C@H](CC(C)C)NC(=O)[C@@H](N)CO)C(=O)N[C@@H](CC(C)C)C(=O)N[C@@H](C)C(=O)N[C@@H](C)C(=O)N[C@@H](C)C(=O)NCC(=O)N[C@@H](CCCCN)C(=O)N[C@@H](C)C(=O)N[C@H](C(=O)N[C@@H](C)C(=O)N[C@@H](CC(N)=O)C(=O)N[C@@H](C)C(=O)N[C@H](C(=O)N[C@@H](CC(N)=O)C(=O)NCC(=O)N[C@@H](CC(C)C)C(=O)N[C@@H](C)C(=O)N[C@@H](CC(N)=O)C(=O)N[C@@H](CCC(N)=O)C(N)=O)C(C)C)C(C)C [SLWGKLKEMLAAAGKAVANAVNGLANQ]

MIC [14]: 8.03 µM (≈ 12 µg/mL)
MIC [33]: 4.01 µM (≈ 6 µg/mL)
MIC [16]: 8.03 µM (≈ 12 µg/mL)
MIC [34]: 4.01 µM (≈ 6 µg/mL)
MIC [18]: 1.07 µM (≈ 1.6 µg/mL)
MIC [35]: 1.07 µM (≈ 1.6 µg/mL)
MIC [1]: 16 µM (≈ 23.9 µg/mL)
MIC [2]: 16 µM (≈ 23.9 µg/mL)
MIC [3]: 8 µM (≈ 12 µg/mL)
MIC [4]: 8 µM (≈ 12 µg/mL)
SMILES: CC[C@H](C)[C@H](NC(=O)[C@H](CCCN=C(N)N)NC(=O)[C@H](Cc1c[nH]c2ccccc12)NC(=O)[C@H](CCCN=C(N)N)NC(=O)[C@@H](N)C(C)C)C(=O)N[C@@H](CCCN=C(N)N)C(=O)N[C@H](C(=O)N[C@@H](C)C(=O)N[C@H](C(=O)N[C@H](C(=O)N[C@@H](CCCN=C(N)N)C(=O)N[C@@H](C)C(=O)O)[C@@H](C)CC)C(C)C)C(C)C [VRWRIRVAVIRA]
